Measured values from a melting point compilation (Tetko et al.; mined from patent text by program, amines drawn as free bases though some values may be those of a salt).

SMILES | melting point
N#Cc1nn(-c2c(Cl)cc(C(F)(F)F)cc2Cl)c(N)c1-c1ccc(C(F)(F)F)o1 | 148 to 151 °C
COc1cc(OC)nc(CC#N)n1 | 65 to 67 °C
COC(=O)c1ccc2[nH]c(/C=C/c3ccc(OC)c(OC)c3)nc2c1 | 185 to 188 °C
Nc1ccc(OC(F)(F)F)cc1C=O | 42 to 44 °C
O=C1Nc2ccccc2Cc2nccn21 | 238 to 240 °C
CC(=O)N(CCC1CCCCN1CCC(C(N)=O)c1ccccc1Cl)C(C)C (configuration not stated) | 140 to 141 °C
Cc1ccc2c(c1)C(c1cn(C)c(=O)[nH]c1=S)c1nc(C)oc1C=C2 (configuration not stated) | 238 to 240 °C
O=C=NC(=O)CS(=O)(=O)c1ccc2ccccc2c1 | 152 to 155 °C
O=C(Nc1nncs1)c1ccc2ccccc2c1 | 197 to 199 °C
N#Cc1cc(-c2nccs2)[nH]c1C(CC1CCOCC1)c1ccc(S(=O)(=O)C2CC2)cc1 (configuration not stated) | 114 to 116 °C
C=CCOC(=O)c1c(Oc2nc(OC)cc(OC)n2)ccc2[nH]c(C)c(N)c12 | 132 to 135 °C
COC(=O)c1ccc(C=C(CBr)C(=O)OC(C)(C)C)cc1 | 78 °C
CN1CCC(N(CCO)S(=O)(=O)c2ccc(Nc3nccc(Nc4ccc(F)cc4)n3)cc2)CC1 | 125 to 135 °C
O=[N+]([O-])c1cc(F)c(N2CCNCC2)cc1Cl | 91.5 °C
CNC(=O)c1cc(-c2ccc(OC)cc2)nn(CCO)c1=O | 160 to 161 °C
CCCc1ccc(-c2ncc(C#N)c(Cl)n2)cc1 | 109 to 110 °C
CC1(C)CC(NC(=O)ON(Cc2ccccc2)Cc2ccccc2)CC(C)(CNC(=O)ON(Cc2ccccc2)Cc2ccccc2)C1 (configuration not stated) | 139 to 146 °C
O=C(C=Cc1ccc(CO)cc1)N1CCc2c([nH]c3ccccc23)C1c1ccc2c(c1)OCO2 (configuration not stated) | 206 °C
CCCCOc1cccn2c(=O)cc(C)nc12 | 93 to 94 °C
OCC1(c2ccccc2)CCCCC1 | 63 to 64 °C
CN1Cc2c(S(=O)(=O)Cl)cc3[nH]c(=O)c(=O)[nH]c3c2C1 | > 300 °C
CCOC(=O)c1cnc2scc(C)n12 | 45 °C
BrCc1ccc2c(-c3ccccc3)onc2c1 | 127 to 128 °C

SMILES | melting point
COc1ccc(-n2c(S)nc3cc(OC)cc(OC)c3c2=O)cc1 | 322 to 326 °C
O=[N+]([O-])c1ccc(-c2cnc3nc(SCc4ccccc4)nn3c2)cc1 | 195 to 199 °C
CCOC(=O)c1ccc(-n2nc(C(F)(F)F)cc2-c2ccc(S(C)(=O)=O)cc2)cc1 | 159 to 161 °C
N#Cc1cccc(-c2ccccc2)n1 | 65.2 to 66.1 °C
COC(=O)C#CC(=O)c1ccc(OC)c(OC)c1OC | 74 °C
O=C(Nc1ccccc1)c1sc2c([N+](=O)[O-])c(O)c(O)cc2c1Cl | 288 °C
CN(C)CC(=O)N1c2ccccc2NC(=O)c2cncnc21 | 208 to 210 °C
NNN=CN(N)CC(=O)O | 148 to 149 °C
CCC(C)c1nn(-c2ccc(C(F)(F)F)cn2)cc1CO (configuration not stated) | 76 to 77 °C
CN(C)C=NS(=O)(=O)CCC(C)(C)CCI | 105 to 106 °C
CCCOc1ccc(-c2scc(-c3ccccc3Cl)c2CC(=O)N=C(N)N)cc1 | 98 to 99 °C
NC(=O)c1ccc(Br)c(OC(F)F)c1Br | 186 °C
Cc1cccc(NC(c2ccccc2O)c2ccc3cccnc3c2O)n1 (configuration not stated) | 189 to 191 °C
CCCCc1nc(CO)c(C(=O)NCC(=O)O)n1Cc1ccc(-c2ccccc2C(=O)O)cc1 | > 110 °C
c1ccc(N(c2ccccc2)c2ccc(-c3ccc(-c4ccnc(Nc5ccc6ccccc6c5)n4)cc3)cc2)cc1 | > 300 °C
CCCC(=O)C1CCC2C3CCC4CC(O)CCC4(C)C3C(=O)CC12C (configuration not stated) | 112 to 113 °C
O=C(COc1cc(-c2ccccc2F)nc2ccccc12)N1CCOCC1 | 145 °C
COC(=O)c1cc(-c2ccccc2)c(=O)n2ccc3ccc(Cl)cc3c12 | 169 to 170 °C
Cc1nnc2n1-c1ccc([N+](=O)[O-])cc1C(c1ccccc1Cl)=NC2(C)C | 283 °C
Cc1cc(CN2C(=O)C3(COc4cc5c(cc43)OCO5)c3ccccc32)c(C)n1C(C)C (configuration not stated) | 169 to 171 °C
N#Cc1c(N2CCN(C(=O)c3ccc4ccccc4n3)CC2)c2ccccc2n(Cc2ccc(F)cc2)c1=O | 144 to 157 °C
C=C(OCC1(N2CCN(C(=O)OC(C)(C)C)CC2)Cc2ccccc2C1)c1cc(C)cc(C)c1 | 128 °C
Cc1cc(C)c2c(c1)Cc1ccccc1S2(=O)=O | 103 to 105 °C

SMILES | melting point
Cc1c(C)c2c(c(C)c1O)CCC(C)(CC(=O)O)O2 (configuration not stated) | 168 to 171 °C
CC(=O)c1cn(Cc2ccccc2)c(=O)n(Cc2ccc(F)cc2)c1=O | 106 to 108 °C
O=C(OCc1ccccc1)[C@H](Cc1ccc(-c2ccccc2)cc1)NCP(=O)(Oc1ccccc1)Oc1ccccc1 | 85 to 86 °C
CCN1C[C@@H](O)[C@H](N(C(=O)c2ccc(Cl)cc2)C2CCCCC2)C1 (relative stereo) | 111 to 116 °C
CCN(CC)c1ccc(/C=C/C(=O)CC(=O)/C=C/c2ccc3cc[nH]c3c2)c(OCc2ccccn2)c1 | 92 to 96 °C
CCCCCCCOc1cc2c(cc1C=Cc1ccc(C(=O)O)cc1)C(C)(C)CCC2(C)C | 153 to 155 °C
CN1CCC(c2c[nH]c3ccc(C(=O)c4ccc(N(C)C)cc4)cc23)CC1 | 103 to 104 °C
O=S1(=O)CCCS(=O)(=O)N1F | 171 to 172 °C
Cc1cccc(-c2c(CC(=O)Nc3ccc(F)cc3C(F)(F)F)c(=O)oc3cc4c(cc23)CC=C4)c1 | 196 to 197 °C
O=C(Cc1c(-c2ccccc2)c2cc3c(cc2oc1=O)C(O)CC3)Nc1ccc(F)cc1C(F)(F)F (configuration not stated) | 217 to 218 °C
Cn1nnc(N(Cc2ccccc2)C(=O)C2CCCC2)n1 | 54 °C
CC(C)(C)OC(=O)CC(=O)c1ccco1 | 74 to 75 °C
CCC1CCN(C(=O)C(Cc2c[nH]cn2)NC(=O)C2CCC(=O)N2)C1C(N)=O (racemic) | 156 to 160 °C
Nc1cc(Oc2ccc3c(C(=O)Nc4cccc(C(F)(F)F)c4)cccc3c2)ncn1 | 243 to 244 °C
O=C(O)c1ccc(-c2ccccc2O)cc1 | 176 to 178 °C
CC(C)Cc1nn(C)c(=O)c2c(SCCCO)c(Cc3ccccc3)sc12 | 60 to 65 °C
CC(CCC(=O)O)(c1ccc(OCc2ccc3ccc(Cl)cc3n2)cc1)c1ccc(OCc2ccc3ccc(Cl)cc3n2)cc1 | 88 to 90 °C
CN1C(=O)N(c2cc(Cl)nc(Cl)c2)C(=O)[C@]12CNC[C@H]2c1ccc(C#N)cc1 (relative stereo) | 202 °C
Nc1c(F)c(F)nc(F)c1Cl | 118 to 120 °C
ClC1=Nc2ccccc2Cn2cccc21 | 102 to 104 °C
CCNC(=O)c1c([Si](C)(C)C)csc1Cl | 46 to 48 °C
Cc1cccc(-c2n[nH]cc2-c2ccc(F)c(-c3ccc[nH]3)c2)n1 | 141 to 142 °C
CCCNC(=O)N1C2=NC(C)(C)N(C)C(=O)N2c2ccccc21 | 85 to 87 °C

The next lines start with the values.

melting point | SMILES
50 °C | CC(C)Cn1c(=O)n(C)c(=O)c2c(SCCCO)n(Cc3ccccc3CS(=O)(=O)c3ccccc3)nc21
247 to 248 °C | CC(C)OC1=CC=CN2C1=NC(=O)C2(Cc1ccccc1)Cc1ccccc1
52 to 54 °C | CCCCCCCCCCCCOCC(C=CC(=O)N(C)C)(C=CC(=O)N(C)C)COCCCCCCCCCCCC
43 to 46 °C | CCC(O)=C1C(=O)OC(C)(C)OC1=O
76 to 77 °C | NS(=O)(=O)OCCCCOc1ccccc1
107 to 108 °C | CSc1ncc2c(Cl)ccn2n1
78 to 82 °C | CC(C)C(CCCCCCCC(=O)O)NCc1ccc(F)cc1 (configuration not stated)
197 to 199 °C | Cc1cc2oc(=O)c3c(c2cc1[N+](=O)[O-])CCNC3
42 to 44 °C | C=C(C)C(=O)CC/C(C)=C/CC/C(C)=C/C(N)=O
111 to 113 °C | O=C(CCC1=C(n2nc(-c3c(-c4ccccc4)nn4ccccc34)ccc2=O)CCCC1)OCc1ccccc1
81 to 83 °C | COC(=O)C=C1Oc2ccccc2Oc2ccccc21
62 to 63.5 °C | CC(=O)N1CC(CCN(C)C)Cc2ccc(OCc3ccc(-c4ccccc4)cc3)cc21 (configuration not stated)
119 to 120 °C | CC(C)c1ccc(C(C[N+](=O)[O-])SC(=S)N(C)C)cc1 (configuration not stated)
141 to 142 °C | O=C(O)CCCc1ccc(NS(=O)(=O)c2cccc(Cl)c2)cn1
135 to 136 °C | CCCCn1nc(C(F)(F)CCC)nc1Cc1ccc(-c2ccccc2-c2nnn[nH]2)nc1
127 °C | CC1=C(C(=O)O)CCc2ccccc21
134 to 135 °C | O=C1OC2(CCCCC2)OC(=O)C12CC2

melting point | SMILES
94.5 to 95 °C | CC(C)(C)c1ccc(C#N)cc1N
95 to 98 °C | CCOc1cccc2c1Sc1ccccc1C2
104 to 106 °C | O=C(COCc1csc(-c2ccc(F)cc2)n1)c1ccccc1
101 to 105 °C | CCSC(=S)SC1NC(=O)C1C(C)OC(C)=O (mixture of isomers)
143 to 145 °C | O=C(CCCN1CCC2(CC(O)c3cc(F)ccc32)C1)c1ccc(F)cc1 (configuration not stated)
165 to 166 °C | CCc1cccc(C)c1CNc1cc(OC)nc2c1nc(C)n2C
74 to 75 °C | CCOC(=O)NC(Cc1ccccc1)c1ccccc1 (configuration not stated)
164 to 165 °C | Cc1cnc(C)c(NCCc2c[nH]cn2)n1
81 to 82 °C | COC(=O)[C@@H]1[C@H](NCc2cc(OC(F)(F)F)ccc2OC)[C@H](c2ccccc2)N[C@@H]1C (relative stereo)
98 °C | CCCCCCCCOc1cc(O)c2c(=O)c3ccccc3oc2c1
67.2 to 68.2 °C | CCCC(=O)c1cccc2cc[nH]c12
201 to 202 °C | O=C1C2CCCC(C(=O)N2Cc2ccccc2)N1Cc1ccccc1
100 to 101 °C | Cc1c(C)n(CCCF)c2c(OCc3ccccc3)nncc12
171 °C | O=c1c(N2CCNCC2)nccn1CCOc1cccc([N+](=O)[O-])c1
162 to 164 °C | CNC(=O)c1cnn(-c2ccc(Cl)cc2C(F)(F)F)c1C#N
257 to 258 °C | Cn1c(C(F)(F)F)cc(=O)n(-c2ccc(Cl)c(S(N)(=O)=O)c2)c1=O
